This note sets out measurements from paper PMC12235045, “Structural insights into allosteric inhibition of HRI kinase by heme binding via HDX-MS” (Biochemical Journal, 2025).

In experiment [1] the target is T1, Heme-regulated inhibitor (HRI) (Homo sapiens, UniProt Q9BQI3).
T1 construct: gene EIF2AK1; N-terminally His-tagged human HRI, dephosphorylated, from E. coli
The experiment can be described thus: ADP-GLO kinase assay with eIF2α substrate; supported by nanoDSF (+[…] °C at […]) and Phos-tag gels. It counts as biochemical.

For experiment [2], the target named is T1, Heme-regulated inhibitor (HRI). The experiment is described as above. Type of experiment: biochemical. The source holds these as a separate data set.

Read-outs that look alike come from different tables or passages of the source.

T1 sequence (Q9BQI3 whole entry): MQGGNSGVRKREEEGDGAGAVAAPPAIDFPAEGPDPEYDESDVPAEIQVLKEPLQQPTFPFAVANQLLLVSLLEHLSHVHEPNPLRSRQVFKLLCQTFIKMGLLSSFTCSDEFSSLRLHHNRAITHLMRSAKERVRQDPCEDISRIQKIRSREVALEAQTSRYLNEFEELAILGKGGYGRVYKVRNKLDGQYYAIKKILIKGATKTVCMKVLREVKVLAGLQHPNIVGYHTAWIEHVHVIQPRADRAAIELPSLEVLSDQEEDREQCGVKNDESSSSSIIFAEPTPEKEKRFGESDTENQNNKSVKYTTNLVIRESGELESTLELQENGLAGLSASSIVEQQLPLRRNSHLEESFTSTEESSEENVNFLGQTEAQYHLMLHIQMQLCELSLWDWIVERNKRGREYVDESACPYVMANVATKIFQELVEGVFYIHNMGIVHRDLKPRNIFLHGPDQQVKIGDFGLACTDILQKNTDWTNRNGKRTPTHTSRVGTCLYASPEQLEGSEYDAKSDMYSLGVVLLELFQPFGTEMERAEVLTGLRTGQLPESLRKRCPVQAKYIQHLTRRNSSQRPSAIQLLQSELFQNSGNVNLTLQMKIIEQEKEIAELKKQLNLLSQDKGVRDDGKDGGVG

In general, IC50 refers to the concentration at which inhibition is half-maximal. A lower IC50 goes with higher potency. As for `COC(=O)N[C@@H](C)CNc1nccc(-c2cn(C(C)C)nc2-c2cc(Cl)cc(NS(C)(=O)=O)c2F)n1` [encorafenib], in experiment [1], the IC50 turned out to be 1070 nM.

`COc1ncc(Cl)cc1S(=O)(=O)Nc1ccc(F)c(C#Cc2cnc(N)nc2)c1F` [GCN2iB]: it took 620 nM to reach half-maximal inhibition in experiment [2] (IC50).
